In experiment [1] the test system is MT-4 cells (adult human T-cell leukemia cells). Briefly: Cellular toxicity, MTS cell viability, MT-4 cells. The class given is cell-based. To be noted: for IC50: 5 day, MTS viability. How it is done:
(§1) 6D-2 cells (MCF-7 human breast cancer cells stably transfected with luciferase linked to the 5′ and 3′UTRs of human HER2) were added to 96-well plates at 7500 cells per well in 200 μL medium and incubated for 24 hours at 100% humidity, 5% CO2, and 37° C. Compounds were diluted from DMSO stock solutions into medium and were added at various concentrations. The 6D-2 cells were incubated for 16 hours at which time the volume of medium in each well was reduced to 100 μL using a plate washer. 20 μL of MTS cell viability reagent (Promega, Madison, Wis.) was then added to each well, and the plates were incubated for 1-4 hours. A plate containing wells with 100 μL medium plus MTS reagent was prepared to determine the background reading. The plates were read on the Wallac 2 plate reader (PerkinElmer Life Science, Boston, Mass.) at 490 nm. Percent viability was calculated as (O.D. of compound treated cells−background O.D.)/(O.D. of DMSO treated cells−background O.D.)×100. MT-4 cells (adult human T-cell leukemia cells) were plated at 1.5×10^5 cells per well in 200 μL medium and incubated for at least one hour before the addition of compounds. The cells were incubated for 5 days at 100% humidity, 5% CO2, and 37° C. Cell viability was determined as described for 6D-2 cells.
(§2) Compounds of the invention containing a pyrrolidine substituent were tested for toxicity to cancerous and non-cancerous cells. 6D-2 cellular activity is representative of potency as an antitumor agent. MT-4 cellular activity is representative of general toxicity. A high IC50 for MT-4 cells and a low IC50 for 6D-2 cells is indicative of a compound of potential therapeutic use in treating or preventing proliferative diseases, such as cancer.

In experiment [2] the test system is 6D-2 cells (MCF-7 human breast cancer cells stably transfected with luciferase linked to the 5′ and 3′UTRs of human HER2). As to the kind of experiment: Cellular toxicity, MTS cell viability, 6D-2 cells. To be noted: for IC50: MTS viability. The class given is cell-based. How it is done: as §1, §2
Experiment [3] in a line: Cellular toxicity, MTS cell viability, 6D-2 cells. The class given is cell-based, human. To be noted: Homo sapiens, MCF7, MTS viability. How it is done: as §1, §2

For orientation: IC50 means the concentration at which inhibition is half-maximal. A higher IC50 goes with a need for much substance. For `CC(=O)Nc1ccc(NC2=C(N3CCCC3)C(=O)c3cnccc3C2=O)cc1` [Example 3A, 6-(N′-4-aminoacetanilide)-7-pyrrolidino-5,8-isoquinolinedione], the IC50 in experiment [1] was found to be 5.16 µM; in experiment [2], 0.37 µM.

In the case of `CC(=O)Nc1ccc(NC2=C(N3CCCC3)C(=O)c3ccncc3C2=O)cc1` [Example 3B, 7-(N′-4-aminoacetanilide)-6-pyrrolidino-5,8-isoquinolinedione], the half-inhibitory concentration (IC50) came to 6.79 µM in experiment [1] and 4.08 µM in experiment [2].

As to `O=C1C(Nc2ccc(F)cc2)=C(N2CCCC2)C(=O)c2cnccc21` [Example 4, 6-(N′-4-fluoroanilino)-7-pyrrolidino-5,8-isoquinolinedione], the figures for the IC50 in experiment [1] and in experiment [2] were 2.51 µM and 1.48 µM, respectively.

Regarding `O=C1C(Nc2ccc(F)cc2)=C(N2CCCC2)C(=O)c2ncccc21` [Example 5, 6-(N-4-fluoroanilino)-7-pyrrolidino-5,8-quinolinedione], the half-maximal inhibitory concentration (IC50) in experiment [1] was found to be 6.69 µM; in experiment [2], 0.77 µM.

With `CC(C)(C)OC(=O)Nc1ccc(NC2=C(N3CCCC3)C(=O)c3ccccc3C2=O)cc1` [Example 6, N-4-((3-pyrrolidino-1,4-naphthalenedion-2-yl)amino)phenyl-O-1.1-dimethylethylcarbamate], the half-inhibitory concentration (IC50) in experiment [1] worked out at 2.78 µM; in experiment [2] it was 0.57 µM.

In the case of `Nc1ccc(NC2=C(N3CCCC3)C(=O)c3ccccc3C2=O)cc1` [Example 7, 2-(N-4-aminoanilino)-3-pyrrolidino-1,4-naphthoquinone], the IC50 worked out at 0.16 µM in experiment [1] and 0.07 µM in experiment [2].

`COc1ccc(NC2=C(N3CCCC3)C(=O)c3ccccc3C2=O)cn1` [Example 8, 2-(N-2-methoxy-5-aminopyridine)-3-pyrrolidino-1,4-naphthoquinone]: the results for the half-maximal inhibitory concentration (IC50) in experiment [1] and in experiment [2] were 1.11 µM and 0.12 µM, respectively.

`COc1ccc(NC2=C(N3CCCC3)C(=O)c3ccccc3C2=O)cc1` [Example 9, 2-(N-4-methoxyanilino)-3-pyrrolidino-1,4-naphthoquinone]: the half-maximal inhibitory concentration (IC50) in experiment [1] came to 0.52 µM; in experiment [2] it was 0.1 µM.

In the case of `Cc1cc(=O)oc2cc(NC3=C(N4CCCC4)C(=O)c4ccccc4C3=O)ccc12` [Example 10, 7-((3-pyrrolidino-1,4-naphthalenedion-2-yl)amino)-4-methylcoumarin], the IC50 is 1.18 µM in experiment [1] (Homo sapiens, MT4, 120 h) and 6.78 µM in experiment [3].

As to `CC(C)NC(=S)Nc1ccc(NC2=C(N3CCCC3)C(=O)c3ccccc3C2=O)cc1` [Example 11, N^1-4-((3-pyrrolidino-1,4-naphthalenedion-2-yl)amino)phenyl-N^2-(1-methylethyl)thiourea], the concentration for half-maximal inhibition (IC50) in experiment [1] worked out at 6.15 µM; in experiment [2], 0.33 µM.

As for `CNC(=S)Nc1ccc(NC2=C(N3CCCC3)C(=O)c3ccccc3C2=O)cc1` [Example 12, N^1-4-((3-pyrrolidino-1,4-naphthalenedion-2-yl)amino)phenyl-N^2-methylthiourea], the concentration for half-maximal inhibition (IC50) in experiment [1] stood at 8.7 µM; in experiment [2], 0.1 µM.

For `NCC(=O)c1cccc(NC2=C(N3CCCC3)C(=O)c3ccccc3C2=O)c1` [Example 13, 2-(N-3-aminoacetylanilino)-3-pyrrolidino-1,4-naphthoquinone], the “MT-4 5 day, percent @.10 μM” value in experiment [1] is reported as 80% @.10 μM. Further, the “6D-2 24 hr, percent @.10 μM” value in experiment [2] was determined as 70% @.10 μM.

In the case of `O=C1C(Nc2ccccc2)=C(N2CCCC2)C(=O)c2ccccc21` [Example 14, 2-(N-anilino)-3-pyrrolidino-1,4-naphthoquinone], the IC50 is 2.1 µM in experiment [1] and 0.76 µM in experiment [2].

For `Nc1ccc(C(=O)N(C2=C(N3CCCC3)C(=O)c3ccccc3C2=O)c2ccccc2)cc1` [Example 15, 2-(N-4-aminobenzoylanilino)-3-pyrrolidino-1,4-naphthoquinone], the half-maximal inhibitory concentration (IC50) in experiment [1] (Homo sapiens, MT4, 120 h) was 1 µM. Moreover, the “6D-2 24 hr, percent @.10 μM” value in experiment [2] was 60% @.10 μM.

For `O=C1C(Nc2cccc(F)c2)=C(N2CCCC2)C(=O)c2ccccc21` [Example 16, 2-(N-3-fluoroanilino)-3-pyrrolidino-1,4-naphthoquinone], the “MT-4 5 day, percent @.10 μM” value in experiment [1] is reported as 68% @.10 μM. The IC50 in experiment [2] is 1.36 µM.

On to `CN(C)C1=C(Nc2cccc(F)c2)C(=O)c2ccccc2C1=O` [Example 17, 2-(N-3-fluoroanilino)-3-dimethylamino-1,4-naphthoquinone], for which, in experiment [1], the “MT-4 5 day, percent @.10 μM” value was 100% @.10 μM. This molecule also returned an IC50 in experiment [2] of 10 µM.

In the case of `CC1CCCN1C1=C(Nc2ccc(F)cc2)C(=O)c2ccccc2C1=O` (stereo not shown) [Example 18, 2-(N-4-fluoroanilino)-3-(2-methylpyrrolidino)-1,4-naphthoquinone], the IC50 in experiment [1] stood at 5.24 µM; in experiment [2], 2.63 µM.

Take `COC[C@@H]1CCCN1C1=C(Nc2ccc(F)cc2)C(=O)c2ccccc2C1=O` [Example 19, 2-(N-4-fluoroanilino)-3-(2-(S)-methoxymethylpyrrolidino)-1,4-naphthoquinone]: the “MT-4 5 day, percent @.10 μM” value in experiment [1] is 97% @.10 μM. The molecule further registered an IC50 in experiment [2] of 8.95 µM.

Take `O=C(Nc1ccc(NC2=C(N3CCCC3)C(=O)c3ccccc3C2=O)cc1)c1ccco1` [Example 20, 2-(4-(2-furanoylamino)phenylamino)-3-pyrrolidino-1,4-naphthoquinone]: the IC50 in experiment [1] (Homo sapiens, MT4, 120 h) was found to be 0.11 µM; in experiment [3], 0.06 µM.

For `CC(C)OC(=O)Nc1ccc(NC2=C(N3CCCC3)C(=O)c3ccccc3C2=O)cc1` [Example 21, N-4-((3-pyrrolidino-1,4-naphthalenedion-2-yl)amino)phenyl-O-(1-methylethyl)carbamate], the figures for the IC50 in experiment [1] and in experiment [2] were 2 µM and 1.38 µM, respectively.

Take `COC(=O)Nc1ccc(NC2=C(N3CCCC3)C(=O)c3ccccc3C2=O)cc1` [Example 22, N-4-((3-pyrrolidino-1,4-naphthalenedion-2-yl)amino)phenyl-O-methylcarbamate]: the values for the half-inhibitory concentration (IC50) in experiment [1] and in experiment [2] were 0.47 µM and 0.14 µM, respectively.

Consider `COC(=O)Nc1cccc(NC2=C(N3CCCC3)C(=O)c3ccccc3C2=O)c1` [Example 23, N-3-((3-pyrrolidino-1,4-naphthalenedion-2-yl)amino)phenyl-O-methylcarbamate], for which the values for the half-maximal inhibitory concentration (IC50) in experiment [1] and in experiment [2] were 10.2 µM and 0.87 µM, respectively.

With `CC(C)NC(=O)Nc1ccc(NC2=C(N3CCCC3)C(=O)c3ccccc3C2=O)cc1` [Example 24, N′-4-((3-pyrrolidino-1,4-naphthalenedion-2-yl)amino)phenyl-N^2-(1-methylethyl)urea], the results for the IC50 in experiment [1] and in experiment [2] were 1.68 µM and 0.18 µM, respectively.

For the molecule `O=C(Nc1ccccc1)Nc1ccc(NC2=C(N3CCCC3)C(=O)c3ccccc3C2=O)cc1` [Example 25, N^1-4-((3-pyrrolidino-1,4-naphthalenedion-2-yl)amino)phenyl-N^2-phenylurea], the IC50 in experiment [1] turned out to be 2.22 µM; in experiment [2], 1.06 µM.

On to `CNC(=O)Nc1ccc(NC2=C(N3CCCC3)C(=O)c3ccccc3C2=O)cc1` [Example 26], for which the figures for the IC50 in experiment [1] and in experiment [2] were 0.75 µM and 0.11 µM, respectively.

Turning to `COCCNC(=O)Nc1ccc(NC2=C(N3CCCC3)C(=O)c3ccccc3C2=O)cc1` [Example 27, N′-4-((3-pyrrolidino-1,4-naphthalenedion-2-yl)amino)phenyl-N^2-(2-methoxyethyl)urea], the IC50 was 0.56 µM in experiment [1] and 0.21 µM in experiment [2].

Take `NC(=O)Nc1ccc(NC2=C(N3CCCC3)C(=O)c3ccccc3C2=O)cc1` [Example 28, 2-(N-(4-carbamidoanilino))-3-pyrrolidino-1,4-naphthoquinone]: the “MT-4 5 day, percent @ 10 μM” value in experiment [1] is reported as 56% @ 10 μM. This molecule also gave a half-inhibitory concentration (IC50) in experiment [2] of 0.31 µM.

Consider `O=C1C(Nc2ccc(F)c(F)c2)=C(N2CCCC2)C(=O)c2ccccc21` [Example 29, 2-(N-3,4-difluoroanilino)-3-pyrrolidino-1,4-naphthoquinone], for which the “MT-4 5 day, percent @ 10 μM” value in experiment [1] stood at 40% @ 10 μM. In experiment [2], this molecule gave an IC50 of 2.34 µM.

As for `O=C1C(Nc2ccc(F)cc2)=C(N2CCCC2)C(=O)c2ccccc21` [Example 30, 2-(N-4-Fluoroanilino)-3-pyrrolidino-1,4-naphthoquinone], the results for the IC50 in experiment [1] and in experiment [2] were 4.47 µM and 0.52 µM, respectively.

In the case of `Nc1ccc2c(c1)C(=O)C(N1CCCC1)=C(Nc1ccc(F)c(F)c1)C2=O` [Example 31, 6-Amino-2-(N-3,4-difluoroanilino)-3-pyrrolidino-1,4-naphthoquinone], the IC50 came to 0.3 µM in experiment [1] and 1.5 µM in experiment [2].

Take `COC(=O)Nc1ccc2c(c1)C(=O)C(N1CCCC1)=C(Nc1ccc(F)c(F)c1)C2=O` [Example 32, 6-[(methoxycarbonyl)amino]-2-(N-3,4-difluoroanilino)-3-pyrrolidino-1,4-naphthoquinone]: the values for the IC50 in experiment [1] and in experiment [2] were 7 µM and 4 µM, respectively.

In the case of `O=C1C(Nc2ccc(F)c(F)c2)=C(N2CCCC2)C(=O)c2ccc([N+](=O)[O-])cc21` [Example 33, 7-Nitro-2-(N-3,4-difluoroanilino)-3-pyrrolidino-1,4-naphthoquinone], the IC50 amounted to 0.7 µM in experiment [1] and 1 µM in experiment [2].

(Values after patent publication US20030232801A1, “Identification of compounds for the treatment or prevention of proliferative diseases” (priority 2001, published 2003).)
